Settings in all cases: 4-nitrothiophenol as nucleophile; 400 μM thiamine; pH 7.2, 37 °C
For assay [1], the target named is T1, CbThi1 (Clostridium botulinum, UniProt A5HZW3).
T1 construct: gene CBO0770

Assay [2] deals with T2, AcThi1 (Archangium violaceum, UniProt A0ACG8CQS0).
T2 construct: gene JRI60_22580
T2 sequence (A0ACG8CQS0 24-424): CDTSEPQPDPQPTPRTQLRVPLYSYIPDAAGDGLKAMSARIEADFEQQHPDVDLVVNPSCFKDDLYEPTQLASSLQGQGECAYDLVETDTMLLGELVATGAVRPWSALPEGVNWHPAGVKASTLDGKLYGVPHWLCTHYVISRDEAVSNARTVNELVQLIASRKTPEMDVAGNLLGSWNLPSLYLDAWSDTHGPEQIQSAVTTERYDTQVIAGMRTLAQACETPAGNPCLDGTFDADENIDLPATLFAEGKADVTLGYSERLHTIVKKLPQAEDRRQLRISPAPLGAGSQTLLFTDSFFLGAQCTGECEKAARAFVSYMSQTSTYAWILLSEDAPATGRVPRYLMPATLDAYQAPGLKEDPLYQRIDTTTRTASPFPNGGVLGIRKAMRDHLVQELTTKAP
As to the kind of experiment: thiaminase I activity assay, 4-nitrothiophenol consumption at […] nm. Type of assay: biochemical.

The target of assay [3] is T3, MxThi1 (Myxococcus xanthus, UniProt Q1D3T2).
T3 construct: gene MXAN_4523
T3 sequence (Q1D3T2 36-418): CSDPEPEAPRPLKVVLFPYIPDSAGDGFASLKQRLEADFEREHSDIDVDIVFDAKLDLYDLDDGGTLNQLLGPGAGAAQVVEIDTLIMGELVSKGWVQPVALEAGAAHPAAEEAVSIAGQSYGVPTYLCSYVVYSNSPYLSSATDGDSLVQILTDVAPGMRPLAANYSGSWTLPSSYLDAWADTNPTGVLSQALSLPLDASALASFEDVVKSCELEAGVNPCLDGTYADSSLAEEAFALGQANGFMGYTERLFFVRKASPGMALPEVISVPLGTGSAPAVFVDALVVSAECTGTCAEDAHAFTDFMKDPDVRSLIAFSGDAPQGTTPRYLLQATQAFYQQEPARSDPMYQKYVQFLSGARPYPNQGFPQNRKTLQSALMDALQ
The assay is described as above. Type of assay: biochemical.

T1 sequence (A5HZW3 32-404 limits assumed): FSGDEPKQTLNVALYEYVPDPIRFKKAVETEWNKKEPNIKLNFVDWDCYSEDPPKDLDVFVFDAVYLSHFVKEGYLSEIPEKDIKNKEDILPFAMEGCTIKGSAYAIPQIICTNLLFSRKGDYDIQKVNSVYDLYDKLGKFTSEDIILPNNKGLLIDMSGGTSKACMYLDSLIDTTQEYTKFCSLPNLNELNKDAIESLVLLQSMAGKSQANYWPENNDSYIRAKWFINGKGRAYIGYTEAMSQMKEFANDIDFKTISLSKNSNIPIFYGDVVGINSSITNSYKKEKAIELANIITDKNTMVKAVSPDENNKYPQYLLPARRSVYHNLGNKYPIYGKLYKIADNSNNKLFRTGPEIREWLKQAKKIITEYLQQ

Regarding `Cc1ncc(C[n+]2csc(CCO)c2C)c(N)n1` [thiamine], the “thiaminase I activity assay, 4-nitrothiophenol consumption at 411 nm” value in assay [1], in assay [2] and in assay [3] was “All these recombinant proteins exhibited thiaminase I activity” in each case.

Values taken from article PMC10499793 (Nature Communications, 2023).
